Legend:
Type in all cases: in vivo
VIOAR = assay: Pre-emergence test, weed control; conditions: 3 weeks after treatment, rating 0-100 (100=death), Table 3
Description: (§1) The pre-emergence tests involve spraying a liquid formulation of the compound onto the soil in which the seeds of the plant species mentioned above has recently been sown.
(§2) The soil used in the tests is a prepared horticultural loam. The formulations used in the tests are prepared from solutions of the test compounds in acetone containing 0.4% by weight of an alkylphenol/ethylene oxide condensate available under the trade mark TRITON X-155.
(§3) These acetone solutions are diluted with water and the resulting formulations applied at dosage levels corresponding to 15 g, 30 g, 60 g, 120 g or 240 g of active material per hectare in a volume equivalent to 900 liters per hectare. In these tests untreated sown soil is used as control. The herbicidal effects of the test compounds are assessed visually three weeks after spraying the soil and are recorded an a 0 to 100 scale. A rating 0 indicates growth as untreated control, a rating 100 indicates death. An increase of 10 unit an the linear scale approximates to a 10% increase in the level of effect. The results of the assessment are set out in Tables 1 to 4.

PAPRH = assay: Pre-emergence test, weed control; conditions: 3 weeks after treatment, rating 0-100 (100=death), Table 3
Description: as §1, §2, §3

[1] = test system: grasses and broadleaf weeds; assay: Pre-emergence test, overall weed control
Description: as §1, §2, §3

wheat = assay: Pre-emergence test, tolerance in wheat
Description: as §1, §2, §3

Alopecurus myosuroides = assay: Pre-emergence test, weed control; conditions: 3 weeks after treatment, rating 0-100 (100=death), Table 3
Description: as §1, §2
(§4) In these tests untreated sown soil is used as control. The herbicidal effects of the test compounds are assessed visually three weeks after spraying the soil and are recorded an a 0 to 100 scale. A rating 0 indicates growth as untreated control, a rating 100 indicates death. An increase of 10 unit an the linear scale approximates to a 10% increase in the level of effect. The results of the assessment are set out in Tables 1 to 4.

Galium aparine = assay: Pre-emergence test, weed control; conditions: 3 weeks after treatment, rating 0-100 (100=death), Table 3
Description: as §1, §2, §4

Setaria viridis = assay: Pre-emergence test, weed control; conditions: 3 weeks after treatment, rating 0-100 (100=death), Table 3
Description: as §1, §2, §4

Stellaria media = assay: Pre-emergence test, weed control; conditions: 3 weeks after treatment, rating 0-100 (100=death), Table 3
Description: as §1, §2, §4

Poa annua = assay: Pre-emergence test, weed control; conditions: 3 weeks after treatment, rating 0-100 (100=death), Table 3
Description: as §1, §2, §4

Veronica persica = assay: Pre-emergence test, weed control; conditions: 3 weeks after treatment, rating 0-100 (100=death), Table 3
Description: as §1, §2, §4

Lamium purpureum = assay: Pre-emergence test, weed control; conditions: 3 weeks after treatment, rating 0-100 (100=death), Table 3
Description: as §1, §2, §4

Lolium perenne = assay: Pre-emergence test, weed control; conditions: 3 weeks after treatment, rating 0-100 (100=death), Table 3
Description: as §1, §2, §4

Matricaria inodora = assay: Pre-emergence test, weed control; conditions: 3 weeks after treatment, rating 0-100 (100=death), Table 3
Description: as §1, §2, §4

Apera spica-venti = assay: Pre-emergence test, weed control; conditions: 3 weeks after treatment, rating 0-100 (100=death), Table 3
Description: as §1, §2, §4

[2] = test system: Triticum aestivum variety “Kanzler”; assay: Pre-emergence test, selectivity; conditions: 3 weeks after treatment, rating 0-100 (100=death), Table 4
Description: as §1, §2, §3

[3] = test system: Triticum aestivum variety “Monopol”; assay: Pre-emergence test, selectivity; conditions: 3 weeks after treatment, rating 0-100 (100=death), Table 4
Description: as §1, §2, §3

## FC(F)(F)c1ccc(-c2nccc(Oc3ccnc(Cl)c3)n2)cc1 [CTP, 4-(2-chloropyrid-4-yloxy)-2-(4-trifluoromethyl-phenyl)pyrimidine]
VIOAR; 0.030 kg/ha
  VIOAR weed control rating: 99
VIOAR; 0.060 kg/ha
  VIOAR weed control rating: 100
VIOAR; 0.120 kg/ha
  VIOAR weed control rating: 100
VIOAR; 0.240 kg/ha
  VIOAR weed control rating: 100
PAPRH; 0.030 kg/ha
  PAPRH weed control rating: 100
PAPRH; 0.060 kg/ha
  PAPRH weed control rating: 100
PAPRH; 0.120 kg/ha
  PAPRH weed control rating: 100
PAPRH; 0.240 kg/ha
  PAPRH weed control rating: 100
[1]
  dose at which complete control of all the grasses and broadleaf weeds was achieved: 120 g/ha
wheat; pre-emergence
  maximum tolerated dose in wheat / dose at which sufficiently selective in wheat: 240 g/ha
Alopecurus myosuroides; 0.030 kg/ha
  ALOMY weed control rating: 15
Alopecurus myosuroides; 0.060 kg/ha
  ALOMY weed control rating: 35
Alopecurus myosuroides; 0.120 kg/ha
  ALOMY weed control rating: 99
Alopecurus myosuroides; 0.240 kg/ha
  ALOMY weed control rating: 100
Galium aparine; 0.030 kg/ha
  GALAP weed control rating: 10
Galium aparine; 0.060 kg/ha
  GALAP weed control rating: 65
Galium aparine; 0.120 kg/ha
  GALAP weed control rating: 93
Galium aparine; 0.240 kg/ha
  GALAP weed control rating: 95
Setaria viridis; 0.030 kg/ha
  SETVI weed control rating: 98
Setaria viridis; 0.060 kg/ha
  SETVI weed control rating: 100
Setaria viridis; 0.120 kg/ha
  SETVI weed control rating: 100
Setaria viridis; 0.240 kg/ha
  SETVI weed control rating: 100
Stellaria media; 0.030 kg/ha
  STEME weed control rating: 80
Stellaria media; 0.060 kg/ha
  STEME weed control rating: 100
Stellaria media; 0.120 kg/ha
  STEME weed control rating: 100
Stellaria media; 0.240 kg/ha
  STEME weed control rating: 100
Poa annua; 0.030 kg/ha
  POAAN weed control rating: 100
Poa annua; 0.060 kg/ha
  POAAN weed control rating: 100
Poa annua; 0.120 kg/ha
  POAAN weed control rating: 100
Poa annua; 0.240 kg/ha
  POAAN weed control rating: 100
Veronica persica; 0.030 kg/ha
  VERPE weed control rating: 100
Veronica persica; 0.060 kg/ha
  VERPE weed control rating: 100
Veronica persica; 0.120 kg/ha
  VERPE weed control rating: 100
Veronica persica; 0.240 kg/ha
  VERPE weed control rating: 100
Lamium purpureum; 0.030 kg/ha
  LAMPU weed control rating: 90
Lamium purpureum; 0.060 kg/ha
  LAMPU weed control rating: 100
Lamium purpureum; 0.120 kg/ha
  LAMPU weed control rating: 100
Lamium purpureum; 0.240 kg/ha
  LAMPU weed control rating: 100
Lolium perenne; 0.030 kg/ha
  LOLPE weed control rating: 93
Lolium perenne; 0.060 kg/ha
  LOLPE weed control rating: 95
Lolium perenne; 0.120 kg/ha
  LOLPE weed control rating: 98
Lolium perenne; 0.240 kg/ha
  LOLPE weed control rating: 100
Matricaria inodora; 0.030 kg/ha
  MATIN weed control rating: 98
Matricaria inodora; 0.060 kg/ha
  MATIN weed control rating: 99
Matricaria inodora; 0.120 kg/ha
  MATIN weed control rating: 99
Matricaria inodora; 0.240 kg/ha
  MATIN weed control rating: 100
Apera spica-venti; 0.030 kg/ha
  APESV weed control rating: 100
Apera spica-venti; 0.060 kg/ha
  APESV weed control rating: 100
Apera spica-venti; 0.120 kg/ha
  APESV weed control rating: 100
Apera spica-venti; 0.240 kg/ha
  APESV weed control rating: 100
[2]; 0.120 kg/ha
  TRZAWK rating (Selectivity): 1
[2]; 0.240 kg/ha
  TRZAWK rating (Selectivity): 5
[3]; 0.060 kg/ha
  TRZAWM rating (Selectivity): 1
[3]; 0.120 kg/ha
  TRZAWM rating (Selectivity): 2
[3]; 0.240 kg/ha
  TRZAWM rating (Selectivity): 5

## CSc1cc(Oc2ccnc(Cl)c2)nc(-c2ccc(C(F)(F)F)cc2)n1 [REF-7]
VIOAR; 0.030 kg/ha
  VIOAR weed control rating: 98
VIOAR; 0.060 kg/ha
  VIOAR weed control rating: 99
VIOAR; 0.120 kg/ha
  VIOAR weed control rating: 99
VIOAR; 0.240 kg/ha
  VIOAR weed control rating: 99
PAPRH; 0.030 kg/ha
  PAPRH weed control rating: 95
PAPRH; 0.060 kg/ha
  PAPRH weed control rating: 100
PAPRH; 0.120 kg/ha
  PAPRH weed control rating: 100
PAPRH; 0.240 kg/ha
  PAPRH weed control rating: 100
wheat; in vivo
  maximum tolerated dose in wheat / dose at which sufficiently selective in wheat: 240 g/ha
Alopecurus myosuroides; 0.030 kg/ha
  ALOMY weed control rating: 10
Alopecurus myosuroides; 0.060 kg/ha
  ALOMY weed control rating: 35
Alopecurus myosuroides; 0.120 kg/ha
  ALOMY weed control rating: 65
Alopecurus myosuroides; 0.240 kg/ha
  ALOMY weed control rating: 90
Galium aparine; 0.120 kg/ha
  GALAP weed control rating: 65
Galium aparine; 0.240 kg/ha
  GALAP weed control rating: 92
Setaria viridis; 0.030 kg/ha
  SETVI weed control rating: 35
Setaria viridis; 0.060 kg/ha
  SETVI weed control rating: 85
Setaria viridis; 0.120 kg/ha
  SETVI weed control rating: 93
Setaria viridis; 0.240 kg/ha
  SETVI weed control rating: 100
Stellaria media; 0.030 kg/ha
  STEME weed control rating: 25
Stellaria media; 0.060 kg/ha
  STEME weed control rating: 98
Stellaria media; 0.120 kg/ha
  STEME weed control rating: 98
Stellaria media; 0.240 kg/ha
  STEME weed control rating: 100
Poa annua; 0.030 kg/ha
  POAAN weed control rating: 95
Poa annua; 0.060 kg/ha
  POAAN weed control rating: 95
Poa annua; 0.120 kg/ha
  POAAN weed control rating: 100
Poa annua; 0.240 kg/ha
  POAAN weed control rating: 100
Veronica persica; 0.030 kg/ha
  VERPE weed control rating: 70
Veronica persica; 0.060 kg/ha
  VERPE weed control rating: 90
Veronica persica; 0.120 kg/ha
  VERPE weed control rating: 99
Veronica persica; 0.240 kg/ha
  VERPE weed control rating: 100
Lamium purpureum; 0.030 kg/ha
  LAMPU weed control rating: 30
Lamium purpureum; 0.060 kg/ha
  LAMPU weed control rating: 90
Lamium purpureum; 0.120 kg/ha
  LAMPU weed control rating: 93
Lamium purpureum; 0.240 kg/ha
  LAMPU weed control rating: 100
Lolium perenne; 0.030 kg/ha
  LOLPE weed control rating: 75
Lolium perenne; 0.060 kg/ha
  LOLPE weed control rating: 90
Lolium perenne; 0.120 kg/ha
  LOLPE weed control rating: 97
Lolium perenne; 0.240 kg/ha
  LOLPE weed control rating: 99
Matricaria inodora; 0.030 kg/ha
  MATIN weed control rating: 90
Matricaria inodora; 0.060 kg/ha
  MATIN weed control rating: 100
Matricaria inodora; 0.120 kg/ha
  MATIN weed control rating: 100
Matricaria inodora; 0.240 kg/ha
  MATIN weed control rating: 100
Apera spica-venti; 0.030 kg/ha
  APESV weed control rating: 100
Apera spica-venti; 0.060 kg/ha
  APESV weed control rating: 100
Apera spica-venti; 0.120 kg/ha
  APESV weed control rating: 100
Apera spica-venti; 0.240 kg/ha
  APESV weed control rating: 100
[2]; 0.030 kg/ha
  TRZAWK rating (Selectivity): 2
[2]; 0.060 kg/ha
  TRZAWK rating (Selectivity): 5
[2]; 0.120 kg/ha
  TRZAWK rating (Selectivity): 5
[2]; 0.240 kg/ha
  TRZAWK rating (Selectivity): 18
[3]; 0.030 kg/ha
  TRZAWM rating (Selectivity): 2
[3]; 0.060 kg/ha
  TRZAWM rating (Selectivity): 5
[3]; 0.120 kg/ha
  TRZAWM rating (Selectivity): 5
[3]; 0.240 kg/ha
  TRZAWM rating (Selectivity): 10

Source: patent US7008905B2, “Method of combating undesired plant growth on cereals” (BASF Aktiengesellschaft, priority 2000, dated 2006)
